Data published in article PMC3923112, “A non-radioactive method for measuring Rubisco activase activity in the presence of variable ATP: ADP ratios, including modifications for measuring the activity and activation state of Rubisco” (Photosynthesis Research, 2014).

Experiments:
Format in all cases: biochemical
[1] = target: T1, Arabidopsis β-RCA (Arabidopsis thaliana, UniProt P10896); assay: continuous coupled Rubisco activation assay (dPGM, enolase, PEP carboxylase, malate dehydrogenase; NADH, A340); conditions: ADP plus ATP 5 mM total at ADP:ATP 0.33; tobacco Rubisco ER form not restated for this set; pH 8, 30 °C, 10 mM MgCl2
T1 construct: recombinant, expressed in Escherichia coli and purified
T1 sequence (P10896 59-446 isoform P10896-2): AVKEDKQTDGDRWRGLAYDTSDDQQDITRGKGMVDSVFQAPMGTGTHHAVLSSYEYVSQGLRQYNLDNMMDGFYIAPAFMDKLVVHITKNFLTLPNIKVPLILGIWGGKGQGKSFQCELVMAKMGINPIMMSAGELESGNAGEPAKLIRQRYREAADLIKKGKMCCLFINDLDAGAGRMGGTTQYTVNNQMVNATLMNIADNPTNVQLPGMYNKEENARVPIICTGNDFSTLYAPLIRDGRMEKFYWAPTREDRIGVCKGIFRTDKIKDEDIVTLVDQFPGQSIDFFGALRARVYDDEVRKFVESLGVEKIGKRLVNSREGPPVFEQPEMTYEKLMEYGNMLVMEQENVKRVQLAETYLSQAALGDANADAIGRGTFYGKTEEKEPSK

[2] = target: T2, tobacco Rubisco (wild-type) (Nicotiana tabacum, UniProt P00876); assay: continuous coupled 3-PGA formation assay (NADH, A340); conditions: ECM form, 0.5 or 2 mM RuBP, 10 mM NaHCO3, 10 mM MgCl2, 5 mM ATP, pH 8, 30 °C; RuBP also inhibits as tight ER complex
T2 construct: gene rbcL; native, purified from tobacco leaves; converted to ER form or carbamylated ECM form; with Ribulose bisphosphate carboxylase small subunit, chloroplastic

[3] = target: T3, His-tagged modified Rubisco (Nicotiana tabacum, UniProt P00876); assay: as above; conditions: ECM form, 0.5 or 2 mM RuBP, 10 mM NaHCO3, 10 mM MgCl2, 5 mM ATP, pH 8, 30 °C; RuBP also inhibits as tight ER complex
T3 construct: gene rbcL; six histidines added to the C-terminus of the large subunit; from transgenic tobacco plants; with Ribulose bisphosphate carboxylase small subunit, chloroplastic
T3 sequence (P69249 58-180, other chains not shown): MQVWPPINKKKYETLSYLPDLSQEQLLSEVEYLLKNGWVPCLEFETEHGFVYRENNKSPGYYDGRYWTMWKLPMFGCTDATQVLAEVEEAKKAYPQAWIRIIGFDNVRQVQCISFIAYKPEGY

T2 sequence (P69249 58-180, other chains not shown): as above

| % inhibition at 0.33 ADP:ATP [1] [%] | Structure (SMILES) | continuous coupled 3-PGA formation assay (NADH, A340) [2] | continuous coupled 3-PGA formation assay (NADH, A340) [3] |
| --- | --- | --- | --- |
| 25 | Nc1ncnc2c1ncn2[C@@H]1O[C@H](COP(=O)(O)OP(=O)(O)O)[C@@H](O)[C@H]1O [ADP] | – | – |
| – | O=C(COP(=O)(O)O)[C@H](O)[C@H](O)COP(=O)(O)O [RuBP] | specific activity of the ECM form of wild-type and modified Rubisco | specific activity of the ECM form of wild-type and modified Rubisco |
